Results taken from patent US9636289B2, “Composition for preventing or treating hair loss or promoting hair growth comprising secoiridoid glucoside derivatives” (priority 2012, dated 2017).
“Also recorded” adds a separate entry of the source.

Legend:
[1] = Measurement on changes in body weight; type: in vivo, mouse; settings: initial body weights and at 6 weeks; vs negative control group (Con)
Protocol: 12 of 6-week-old male C57BL/6N mice (Orientbio) were adapted to the environment for 2 weeks. Then, they were divided into total 3 groups, the negative control group (Con), the positive control group (MXD) and oleuropein group (Ole), and used for test. The environment for animals were maintained at 21±2.0° C. and relative humidity 50±5% under 12 hours light/dark cycle. They were fed a food (chow) and water with free access.
In order to verify an effect for promoting hair growth, 8-week-old mice in telogen were used for test. Hairs of their back were removed using a clipper for mouse. They were subcutaneously injected with 0.1 mL of sample at the part, everyday. Before subcutaneous injection, the test substance oleuropein (0.8 mg/0.1 mL) and the control drug minoxidil were dissolved in corn oil to use. The negative control group was subcutaneously injected with only vehicle (corn oil). The application was performed once, every P.M. 4:00 for 6 weeks. […] To assess level of hair growth, the hair length was measured using ruler.
Body weight was measured weekly during entire test period, from the point before the subcutaneous injection of the hair restorers to the end point of the subcutaneous injection of the hair restorers.

hair follicles = assay: Histological analysis of the back skin (hair growth cycle, hair follicles); type: in vivo, mouse; settings: for Anagen ratio / anagen phases observed (number of cases): 4 animals per group
Text: At 6 weeks after subcutaneous injection, mice were sacrificed. Their back skin tissue samples were isolated using scissors and forceps and fixed by formalin. After dehydration with serial alcohol and xylene, the tissues were paraffinized. Paraffinized tissues were sectioned using a microtomb in a thickness of 5 μm and used alcohol and xylene to remove paraffin. Then, the tissues were stained with hematoxyline/eosin, followed by observation of histological changes in hair follicles under an optical microscope. The hair growth cycles in the tissues were pathologically diagnosed by specialists, and quantity and diameter of hair follicle were measured under an optical microscope.

C57BL/6N mice = assay: Hair re-growth in hair-removed telogen mice, subcutaneous injection for 6 weeks (visual observation, hair length); type: in vivo, mouse; settings: for hair growth state (visual): s.c. 0.8 mg/0.1 mL in corn oil daily
β-catenin [2] = assay: Immunohistochemical test on skin tissue, β-catenin; type: in vivo, mouse; settings: 6 weeks s.c., FIG. 4
Protocol: (§1) In order to verify expression amounts of IGF1 and β-catenin related with hair growth in skin tissue, each primary antibody to IGF1 and β-catenin was diluted to 1:50, added to tissue sections, and incubated for 12 hours at room temperature. The primary antibody was diluted with the mixture of 0.1% normal goat serum (Vector Laboratories Inc.) and 0.3% Triton X-100 (Sigma) in 0.1 M phosphate buffer solution (PB). The tissue sections were washed twice at room temperature for 15 minutes in 0.1M PB. Then, secondary antibody [biotinylated anti-rabbit IgG (Vector Laboratories Inc.)] was diluted to 1:200, added to the tissue sections, and incubated for 1 hour at room temperature. The tissue sections were washed twice at room temperature for 15 minutes in 0.1M PB, soaked in peroxidase-labeled ABC solution, and incubated for 1 hour at room temperature. The tissue sections were washed twice at room temperature for 15 minutes in 0.1M PB. Then, the tissue sections were reacted for 5 min with a solution in which 30 mg of 3-3′ diaminobenzidine was dissolved in 150 ml of 0.1M PB, added with concentration of 0.005% of hydrogen peroxide, and reacted for 5 min to occur color reaction. The tissue sections were washed several times at room temperature in 0.1M PB. […]

IGF1 = assay: Immunohistochemical test on skin tissue, IGF1; type: in vivo, mouse; settings: 6 weeks s.c., FIG. 4
Protocol: as §1

Wnt10b = assay: RT-PCR gene expression in back skin tissue, Wnt10b; type: in vivo, mouse; settings: 6 weeks s.c., compared to the negative control group
Protocol: (§2) After adding 1 mL of Trizol agent to 50-100 mg of test animal skin tissues, the mixture was homogenized and centrifuged at 12,000×g for 10 min at 4° C. The supernatant was transferred to a new tube to remove fat layer. Then, 200 μl of chloroform was added to the tube, followed by vortexing. The same procedure was repeated twice and then the supernatant was transferred to a new tube, followed by addition of isopropanol and the supernatant at 1:1 ratio. The mixture was vigorously shaken 10 times and then incubated for 10 min at room temperature, followed by centrifugation at 12,000×g for 10 min at 4° C. to remove the supernatant. After adding 1 mL of 70% ethanol to the remaining pellet, it was centrifuged at 7,500×g for 5 min at 4° C. After removing the ethanol, the RNA pellet contained in the tube was dried for 5 min at 4° C. and dissolved in nuclease-free water. The RNA sample concentration was measured at a wavelength of 260 nm and 280 nm using a UV/VIS spectrophotometer (Beckman coulter, DU730) and the integrity of RNA sample was verified by agarose gel electrophoresis.
(§3) The RNA sample obtained was trasnscribed using oligo dT primer and SuperScript reverse transcriptase (GIBCO BRL, Gaithersburg, Md., USA) to synthesize cDNA. The PCR amplification was performed using the cDNA as templates and primers complementary to cDNA 5′ and 3′ flanking sequence. […]

[3] = system: FZDR (frizzled receptor 1); assay: RT-PCR gene expression in back skin tissue, FZDR; type: in vivo, mouse; settings: 6 weeks s.c., compared to the negative control group
Protocol: as §2, §3

[4] = system: LRP5 (low-density lipoprotein receptor-related protein 5); assay: RT-PCR gene expression in back skin tissue, LRP5; type: in vivo, mouse; settings: 6 weeks s.c., compared to the negative control group
Protocol: as §2, §3

[5] = system: GSK3β (glycogen synthase kinase 3β); assay: RT-PCR gene expression in back skin tissue, GSK3β; type: in vivo, mouse; settings: 6 weeks s.c., compared to the negative control group
Protocol: as §2, §3

Axin = assay: RT-PCR gene expression in back skin tissue, Axin; type: in vivo, mouse; settings: 6 weeks s.c., compared to the negative control group
Protocol: as §2, §3

β-catenin [6] = assay: RT-PCR gene expression in back skin tissue, β-catenin; type: in vivo, mouse; settings: 6 weeks s.c., compared to the negative control group
Protocol: as §2, §3

[7] = system: IGF1 (insulin-like growth factor 1); assay: RT-PCR gene expression in back skin tissue, IGF1; type: in vivo, mouse; settings: 6 weeks s.c., compared to the negative control group, FIG. 5
Protocol: as §2, §3

[8] = system: VEGF (vascular endothelial growth factor); assay: RT-PCR gene expression in back skin tissue, VEGF; type: in vivo, mouse; settings: 6 weeks s.c., compared to the negative control group, FIG. 5
Protocol: as §2, §3

[9] = system: HGF (hepatocyte growth factor); assay: RT-PCR gene expression in back skin tissue, HGF; type: in vivo, mouse; settings: 6 weeks s.c., compared to the negative control group, FIG. 5
Protocol: as §2, §3

[10] = system: KGF (keratocyte growth factor); assay: RT-PCR gene expression in back skin tissue, KGF; type: in vivo, mouse; settings: 6 weeks s.c., compared to the negative control group, FIG. 5
Protocol: as §2, §3

[11] = cited from earlier work

Nc1cc(N2CCCCC2)nc(N)[n+]1[O-] [minoxidil, reference compound]
body weight, difference between groups [1]: no significant differences
Anagen ratio (hair follicles; back skin at 6 weeks): 25%
anagen phases observed (number of cases) (hair follicles; back skin at 6 weeks): 1 case

C/C=C1/[C@H](O[C@@H]2O[C@H](CO)[C@@H](O)[C@H](O)[C@H]2O)OC=C(C(=O)OC)[C@H]1CC(=O)OCCc1ccc(O)c(O)c1 [oleuropein]
effect for promoting hair growth (visual) compared with minoxidil (C57BL/6N mice; 6 weeks s.c. injection, FIG. 1): more excellent effect for promoting hair growth than that of the minoxidil
effect for stimulating hair growth (hair length) compared with minoxidil (C57BL/6N mice; 6 weeks s.c. injection, FIG. 2): excellent effect for stimulating hair growth than that of the minoxidil
hair length (C57BL/6N mice; at 3 weeks, p<0.05): significantly increased
hair growth state (visual) (C57BL/6N mice; at 3 weeks): hairs were grown
hair length, increase compared to the negative control group (C57BL/6N mice; at 6 weeks): 62%
hair growth state (visual) (C57BL/6N mice; at 6 weeks): hairs were vigorously grown
hair follicle length / appearance (hair follicles; back skin at 6 weeks): became longer and they were expressed into skin
Histological diagnosis of hair growth cycle, individual animals (Animal ID 1-4) (hair follicles; back skin at 6 weeks after s.c. injection): Telogen; also recorded: Anagen
Anagen ratio (hair follicles; back skin at 6 weeks): 50%
anagen phases observed (number of cases) (hair follicles; back skin at 6 weeks): 2 case
diameter of the hair follicles (hair follicles; image analysis, compared to the negative control group): significantly increased
number of hair follicles (hair follicles; optical microscope 40× magnification, compared to the negative control group, FIG. 3): significantly increased
effect for increasing protein expression level of β-catenin compared with minoxidil (β-catenin [2]): more excellent effect
protein expression level of β-catenin (β-catenin [2]; vs the negative group): much more highly detected
effect for increasing protein expression level of IGF1 compared with minoxidil (IGF1): more excellent effect
protein expression level of IGF1 (IGF1; vs the negative group): much more highly detected
gene expression level of Wnt10b (Wnt10b): significantly increased
gene expression level of FZDR (frizzled receptor 1) [3]: significantly increased
gene expression level of LRP5 [4]: significantly increased
gene expression level of GSK3β [5]: significantly decreased
gene expression level of Axin (Axin): significantly decreased
gene expression level of β-catenin (β-catenin [6]): significantly increased
gene expression level of IGF1 [7]: significantly increased
gene expression level of VEGF [8]: significantly increased
gene expression level of HGF [9]: significantly increased
gene expression level of KGF [10]: significantly increased
toxicity ([11]; mouse treated with 1 g/kg (body weight) for 7 days): no toxicity
LD50 ([11]; through various experiments): may not be calculated
